Results from patent US20120309790A1, “TREATMENT OF DERM[…] CONDITIONS” (SANOFI, priority 2010, published 2012).
Several values for one entry are separate records, joined by “and”; a condition that tells them apart may be missing. Equal values may be shown once. Where a name gives a salt, the structure may show the parent alone.

Tested on: Ascaris suum antigen-induced wheal
Assay: Ascaris suum antigen-induced intradermal wheal formation in nonhuman primates
Format: in vivo, Macaca fascicularis
Conditions: for Mean wheal area: mean of 12 animals, 15 minutes, A suum alone 119.626; for Individual calculated wheal area: single animals, intradermal, 15 minutes after injection
Text: The species used for this study were male, nonhuman primates, Macaca fascicularis 5 to 10 years of age. Each animal was identified by a unique number tattoo located on its chest. The group size was 12. Animals were supplied by Charles River and housed under conditions outlined in the NIH Guide for Care and Use of Laboratory Animals in compliance with the USDA Laboratory Animal Welfare Act, in a fully accredited AAALAC facility. Purina (product 5038) primate chow was fed twice daily, supplemented with fruit, vegetables and treats. Water was available ad libitum.
Compound A formulated in a solution containing 0.22 mg/ml A sum (Ascaris sum) in phosphate buffered saline was dosed at 0.004, 0.0004, 0.00004, and 0.000004 mg per injection site at a volume of 40 μl.
Diphenhydramine hydrochloride was formulated in a solution containing 0.22 mg/ml A suum in phosphate buffered saline. Diphenhydramine hydrochloride was dosed at 0.4 mg per injection site at a volume of 40 μl.
Ascaris suum extract (part number XPB33X1A5, lot 30575) was supplied by Greer Laboratories. The extract was reconstituted with distilled water to a final concentration of 10 mg/ml of stock solution.
Animals were anesthetized by an intramuscular (IM) injection of 5 to 10 mg/kg ketamine mixed with 0.5 to 0.75 mg/kg medetomidine. The animal's chest and abdomen were shaved and wiped clean with alcohol. The following injections (40 μl each) were given intradermally: • PBS (phosphate buffered saline) • Ascaris 8.8×10^−3 mg/ml • Ascaris 8.8×10^−3 mg/ml+0.4 mg Diphenhydramine hydrochloride • Ascaris 8.8×10^−3 mg/ml+0.004 mg SAR160719 • Ascaris 8.8×10^−3 mg/ml+0.0004 mg SAR160719 • Ascaris 8.8×10^−3 mg/ml+0.00004 mg SAR160719 • Ascaris 8.8×10^−3 mg/ml+0.000004 mg SAR160719
The reactions in the form of a wheal were measured 15 minutes after injection using vernier calipers. The wheal was measured along two diameters (D1 and D2) perpendicular to one another. The area of the wheal was calculated using the formula: […]
Mixed model with repeated measures was used to analyze the data, with wheal size for different treatment groups as the repeated measures, treatment as fixed effects, and animal as random effect. The correlation structure was selected to be compound symmetry. Robust covariance estimate was used to obtain the results.

COCCn1cc(C(=O)N2CCC(c3cc(CN)ccc3F)CC2)c2c(OC(F)(F)F)ccc(F)c21 [Compound A, [4-(5-Aminomethyl-2-fluorophenyl)piperidine-1-yl][7-fluoro-1-(2-methoxyethyl)-4-trifluoromethoxy-1H-indol-3-yl]methanone]
Antigen-induced wheal formation (co-injected with A suum intradermally, measured 15 minutes after injection): reduced antigen-induced wheal formation | Mean wheal area (A suum + 0.000004 mg per site): 105.510 mm^2 | Mean wheal area (A suum + 0.00004 mg per site): 101.157 mm^2 | Mean wheal area (A suum + 0.0004 mg per site): 97.680±8.012 mm^2 and 97.680 mm^2 | Mean wheal area (A suum + 0.004 mg per site): 102.390±9.645 mm^2 and 102.390 mm^2 | Individual calculated wheal area (A suum 8.8 × 10^−3 mg + 0.000004 mg per injection site): 110.302 mm^2 and 84.145 mm^2 and 132.750 mm^2 and 121.754 mm^2 and 86.601 mm^2 and 104.788 mm^2 and 134.800 mm^2 and 133.773 mm^2 and 85.779 mm^2 and 66.485 mm^2 and 115.005 mm^2 and 89.932 mm^2 | Individual calculated wheal area (A suum 8.8 × 10^−3 mg + 0.00004 mg per injection site): 67.209 mm^2 and 86.601 mm^2 and 168.586 mm^2 and 90.774 mm^2 (2×) and 106.610 mm^2 (2×) and 81.723 mm^2 and 107.527 mm^2 and 93.325 mm^2 and 79.337 mm^2 and 134.800 mm^2 | Individual calculated wheal area (A suum 8.8 × 10^−3 mg + 0.0004 mg per injection site): 112.171 mm^2 and 110.302 mm^2 and 158.388 mm^2 and 101.190 mm^2 and 103.882 mm^2 and 107.527 mm^2 and 87.428 mm^2 and 90.774 mm^2 and 100.300 mm^2 and 48.404 mm^2 and 56.752 mm^2 and 95.046 mm^2 | Individual calculated wheal area (A suum 8.8 × 10^−3 mg + 0.004 mg per injection site): 67.938 mm^2 and 115.005 mm^2 and 159.506 mm^2 and 91.621 mm^2 and 84.960 mm^2 (2×) and 131.730 mm^2 and 88.259 mm^2 and 164.014 mm^2 and 99.415 mm^2 and 65.047 mm^2 and 76.211 mm^2

CN(C)CCOC(c1ccccc1)c1ccccc1 [Diphenhydramine hydrochloride, reference compound]
Mean wheal area (A suum + 0.4 mg per site, hydrochloride): 84.196±7.364 mm^2 and 84.196 mm^2 | Individual calculated wheal area (A suum 8.8 × 10^−3 mg + 0.4 mg per injection site, hydrochloride): 76.211 mm^2 and 116.914 mm^2 and 147.430 mm^2 and 62.219 mm^2 and 73.148 mm^2 and 82.527 mm^2 and 58.773 mm^2 and 67.209 mm^2 and 78.550 mm^2 and 65.764 mm^2 and 87.428 mm^2 and 94.183 mm^2
